Experiment: xn = mol fraction of the nth substance listed
Conditions: 101 kPa, Liquid, Vibrating tube method

CCNC=O [N-ethylformamide] + CCCC[N+]1(C)CCCC1.FC(F)(F)C(F)(F)[P-](F)(F)(F)(C(F)(F)C(F)(F)F)C(F)(F)C(F)(F)F
mass density [kg/m3]
Conditions	293.15 K	298.15 K	303.15 K	308.15 K	313.15 K	318.15 K	323.15 K
x2 = 0.0355	1046.38	1042.01	1037.61	1033.05	1028.58	1024.03	1019.35
x2 = 0.0753	1128.67	1124.07	1119.47	1114.62	1109.94	1105.19	1100.26
x2 = 0.0995	1169.56	1164.94	1160.15	1155.23	1150.34	1145.54	1140.56
x2 = 0.1508	1240.4	1235.52	1230.53	1225.54	1220.42	1215.44	1210.24
x2 = 0.2001	1293.64	1288.61	1283.5	1278.35	1273.19	1267.97	1262.79
x2 = 0.3045	1375.94	1370.73	1365.53	1360.23	1354.95	1349.61	1344.26
x2 = 0.3996	1429.28	1424.04	1418.68	1413.37	1407.95	1402.56	1397.21
x2 = 0.5028	1472.71	1467.38	1462.01	1456.63	1451.21	1445.76	1440.28
x2 = 0.5527	1489.92	1484.53	1479.12	1473.75	1468.31	1462.86	1457.36
x2 = 0.5989	1504.15	1498.78	1493.4	1487.95	1482.48	1477.03	1471.54
x2 = 0.7015	1531.11	1525.64	1520.2	1514.75	1509.27	1503.82	1498.32
x2 = 0.7983	1552.06	1546.66	1541.23	1535.76	1530.25	1524.73	1519.18
x2 = 0.8866	1568.75	1563.32	1557.82	1552.35	1546.84	1541.33	1535.77
x2 = 0.951	1580.11	1574.66	1569.19	1563.71	1558.18	1552.64	1547.05

— the NIST ThermoML archive (doi:10.1021/je400803f)
